Data from patent US8187822B2, “Methods to identify modulators” (Givaudan S.A., priority 2007, dated 2012).

Target: T1, TAS2R46 (Homo sapiens, UniProt P59540)
T1 construct: The full length gene of human TAS2R44 was amplified by polymerase chain reaction (PCR) using gene-specific primers that span the entire coding region; RSS tag (first 45 amino acids of rat somatostatin receptor subtype 3) (N); expressed in transfected cells; host or cells: HEK293T/Gα16-gustducin 44 cells, transient transfection
T1 sequence (P59540 1-309): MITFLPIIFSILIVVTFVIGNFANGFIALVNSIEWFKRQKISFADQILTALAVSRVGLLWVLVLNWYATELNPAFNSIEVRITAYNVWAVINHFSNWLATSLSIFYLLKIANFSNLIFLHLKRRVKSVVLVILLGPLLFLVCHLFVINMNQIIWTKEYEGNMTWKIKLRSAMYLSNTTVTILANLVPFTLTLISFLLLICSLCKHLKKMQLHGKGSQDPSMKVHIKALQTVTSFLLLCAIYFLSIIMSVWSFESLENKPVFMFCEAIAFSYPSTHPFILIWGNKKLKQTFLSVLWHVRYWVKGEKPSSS
Assay: Fluo-4 calcium assay, HEK293T/Gα16-gustducin44 cells transiently expressing TAS2R46
Assay type: cell-based
Method: On day 0, the HEK293T/Gα16-gustducin 44 cells are plated in 96-well black wall, clear-bottom plates at a density of 14,000 cells per well and grown overnight in growth media (DMEM with 10% (v/v) heat-inactivated fetal bovine serum, 2 mM L-glutamine, 100 units/ml penicillin, 100 μg/ml streptomycin).
On day 1, the media is changed to an antibiotic-free and serum-free DMEM.
The cells are transfected with Lipofectamine 2000 (Invitorgen) according to the manufacturers recommendations.
Per well of a 96-well plate, 150 ng of vector DNA (SABTR expression vectors or TAS2R16 expression vector from example 1) is diluted in 12.5 μl of DMEM. In a second tube, 0.3 μl of Lipofectamine 2000 is diluted in 12.5 μl of DMEM and incubated for 5 min at room temperature. After the 5 min, both solutions are mixed and incubated for 20 min at RT. The growth medium in the plate is exchanged by 50 μl of DMEM and 25 μl of the lipofectamine/DNA mixture is incubated on the cells for 3-4 hours at 37° in a humidified atmosphere. This mixture is then replaced with an antibiotic-free, serum-containing DMEM.
24 hours post transfection, the cells are used in the Fluo-4 Calcium Assay described in Example 3.
At day 0, the HEK293T cell line expressing Gα16-gustducin44 and a TAS2R bitter taste receptor formed as described in examples 2b or 2c was seeded in antibiotic-free growth medium (standard DMEM with 10% (v/v) heat-inactivated fetal bovine serum, 2 mM L-glutamine[…]) into black wall/clear bottom 96-well plates, coated with poly(ethylenimine) (0.005% v/v) at a concentration of 15,000 cells per well and incubated for 48 hours in humidified atmosphere (37° C., 5% CO2).
At the time of the assay, the growth medium was discarded and the cells were in humidified atmosphere (37° C., 5% CO2) for 1 hour with 50 μl of loading buffer consisting of 1.5 μM Fluo-4 AM and […] probenicid (Sigma-Aldrich, St. Louis, Mo., US) in DMEM.
Afterwards, the 96-well plate was washed 5 times with 100 μl of assay buffer (130 mM NaCl, 5 mM KCl, 10 mM HEPES, 2 mM CaCl2, and 5 mM dextrose, pH 7.4) per well, using an automated plate washer (BioTek). The plate was further incubated for 30 minutes at room temperature in the dark to allow for complete de-esterification of the Fluo-4. Afterwards the plate was washed 5 times with 100 μl of assay buffer per well, and reconstituted with 100 μl of assay buffer per well.
For assay reading, the plate was placed in a Fluorometric Imaging Plate Reader (FLIPR) (FLIPR-TETRA™, Molecular Devices, Sunnyvale, Calif., US), and receptor activation was initiated by addition of 100 μl of a twofold concentrated agonist stock solution (to give the desired agonist end concentration when added to the 100 microliter assay buffer volume), which was prepared in assay buffer.
Fluorescence was continuously monitored for 20 seconds to give a signal baseline (averaged to give F0) prior to agonist addition and for 120 seconds after agonist addition. The change in signal divided by F0 gives ΔF/F0 indicated in the table, with ΔF being the maximum signal occurring within the 120 seconds minus the minimum signal (occurring within the 120 seconds after agonist addition.
All data was collected from at least two independent experiments each carried out in triplicate.
The obtained calcium signals were corrected for the response of cells expressing only the G Protein α subunit (Gα16-gustducin44) and normalized to the fluorescence of cells prior to the stimulus using ΔF/F0 (Fmax−Fmin/F0).
The intracellular calcium response following addition of sucralose was determined in HK293T cell line stably expressing Gα16-gustducin44 and transiently expressing TAS2R46 formed as described in example 2b.

SMILES: OC[C@H]1O[C@H](O[C@]2(CCl)O[C@H](CCl)[C@@H](O)[C@@H]2O)[C@H](O)[C@@H](O)[C@H]1Cl [Sucralose, sucralose]
- calcium signaling in TAS2R46 cells, in words: significant concentration-dependent increase in calcium signaling
- TAS2R46 ΔF/F0 (sucralose 0.3906 mM): 0.041
- TAS2R46 ΔF/F0 (sucralose 0.7813 mM): 0.038
- TAS2R46 ΔF/F0 (sucralose 1.5625 mM): 0.035
- TAS2R46 ΔF/F0 (sucralose 3.1250 mM): 0.036
- TAS2R46 ΔF/F0 (sucralose 6.2500 mM): 0.057
- TAS2R46 ΔF/F0 (sucralose 12.5000 mM): 0.075
- TAS2R46 ΔF/F0 (sucralose 25.0000 mM): 0.106
- TAS2R46 ΔF/F0 (sucralose 50.0000 mM): 0.171
- TAS2R46 ΔF/F0 (sucralose 100.0000 mM): 0.258
